Assay results as given in patent US10285982B2, “3-(1H-pyrrolo[2,3-B]pyridin-2-yl)-1H-pyrazolo[3,4-C]pyridines and therapeutic uses thereof” (Samumed, LLC, priority 2015, dated 2019).

What was measured:
Format in all cases: cell-based
[1] = tested on: Wnt activity (Sp5-Luc reporter, SW480 colon carcinoma cells); assay: Wnt activity screening assay, Sp5-Luc reporter gene in SW480 cells; details: Homo sapiens; for inhibition at 10 µM: given where EC50 >10 μM, read-out: percent inhibition at 10 μM; for EC50: overnight incubation
From the text: The screening assay for Wnt activity is described as follows. Reporter cell lines can be generated by stably transducing cancer cell lines (e.g., colon cancer) or primary cells (e.g., IEC-6 intestinal cells) with a lentiviral construct that includes a Wnt-responsive promoter driving expression of the firefly luciferase gene.
SW480 colon carcinoma cells were transduced with a lentiviral vector expressing luciferase with a human Sp5 promoter consisting of a sequence of eight TCF/LEF binding sites. SW480 cells stably expressing the Sp5-Luc reporter gene and a hygromycin resistance gene were selected by treatment with 150 μg/mL of hygromycin for 7 days. These stably transduced SW480 cells were expanded in cell culture and used for all further screening activities. Each compound was dissolved in DMSO as a 10 mM stock and used to prepare compound source plates. Serial dilution (1:3, 10-point dose-response curves starting from 10 μM) and compound transfer was performed using the ECHO 550 (Labcyte, Sunnyvale, Calif.) into 384-well white solid bottom assay plates (Greiner Bio-One) with appropriate DMSO backfill for a final DMSO concentration of 0.1%. For Sp5-Luc reporter gene assays, the cells were plated at 4,000 cells/well in 384-well plates with medium containing 1% fetal bovine serum and incubated overnight at 37° C. and 5% CO2. Following incubation, 20 μl of BrightGlo luminescence reagent (Promega) was added to each well of the 384-well assay plates. The plates were placed on an orbital shaker for 2 min and then luminescence was quantified using the Envision (Perkin Elmer) plate reader. Readings were normalized to DMSO only treated cells, and normalized activities were utilized for EC50 calculations using the dose-response log (inhibitor) vs. response-variable slope (four parameters) nonlinear regression feature available in GraphPad Prism 5.0 (or Dotmatics). For EC50 of >10 μM, the percent inhibition at 10 μM is provided.

[2] = tested on: SW480 colon cancer cells; assay: Cell viability assay (CellTiter-Blue); details: Homo sapiens, 96 h, four days; for inhibition at 10 µM: given where EC50 >10 μM, read-out: percent inhibition at 10 μM
Method: Representative compounds were screened using the following assay procedure to assess the effect on cell viability as described below.
Each compound was dissolved in DMSO as a 10 mM stock and used to prepare compound source plates. Serial dilution (1:3, 8-point dose-response curves from 10 μM to 0.0045 μM) and compound transfer was performed using the ECHO 550 (Labcyte, Sunnyvale, Calif.) into 96-well clear bottom, black-walled plates (Corning-Costar).
Approximately 2×10^3 SW480 colon cancer cells were seeded into each well and allowed to incubate in the presence or absence of compound for four days at 37° C./5% CO2. Eight replicates of DMSO-treated cells served as controls and cells treated with compound were performed in duplicate.
After incubation, 20 μL of CellTiter-Blue (Promega) was added to each well allowed to incubate for approximately 3 hours. This reagent was a buffered solution which contains resazurin, metabolically active cells were able to reduce rezarurin (blue) into resorufin (pink) which was highly fluorescent. This measured fluorescence was used as a readout for cell viability.
After incubation, the plates were read at Ex 560 nm Em 590 nm (Cytation 3, BioTek). Dose-response curves were generated and EC50 concentration values were calculated using non-linear regression curve fit in the GraphPad Prism (San Diego, Calif.) or Dotmatics' Studies Software (Bishops Stortford, UK). For EC50 of >10 μM, the percent inhibition at 10 μM is provided.

[3] = tested on: primary human fibroblasts derived from IPF patients (LL29 cells) treated with TGF-β1; assay: Inhibition of fibrotic process, αSMA staining in TGF-β1 treated LL29 fibroblasts; details: Fibroblast; for EC50: 96 h, % αSMA positive LL29 cells, TGF-β1 20 ng/mL, 4 days
From the text: Representative compounds were screened using primary human fibroblasts (derived from IPF patients) treated with TGF-β1 to determine their ability to inhibit the fibrotic process.
Primary human fibroblasts derived from IPF patients (LL29 cells) [^1Xiaoqiu Liu, et. al., “Fibrotic Lung Fibroblasts Show Blunted Inhibition by cAMP Due to Deficient cAMP Response Element-Binding Protein Phosphorylation”, Journal of Pharmacology and Experimental Therapeutics (2005), 315(2), 678-687; ^2Watts, K. L., et. al., “RhoA signaling modulates cyclin D1 expression in human lung fibroblasts; implications for idiopathic pulmonary fibrosis”, Respiratory Research (2006), 7(1), 88] were obtained from American Type Culture Collection (ATCC) and expanded in F12 medium supplemented with 15% Fetal Bovine Serum and Penicillin/Streptomycin.
Each compound was dissolved in DMSO as a 10 mM stock and used to prepare compound source plates. Serial dilution (1:2, 11-point dose-response curves from 10 μM to 1.87 nM) and compound transfer was performed using the ECHO 550 (Labcyte, Sunnyvale, Calif.) into 384-well clear bottom assay plates (Greiner Bio-One) with appropriate DMSO backfill for a final DMSO concentration of 0.1%. LL29 cells are plated at 1,500 cells/well in 80 μL/well F12 medium supplemented with 1% Fetal Bovine Serum. One hour after addition of the cells, TGF-β1 (Peprotech; 20 ng/mL) was added to the plates to induce fibrosis (ref. 1 and 2 above). Wells treated with TGF-β1 and containing DMSO were used as controls. Cells were incubated at 37° C. and 5% CO2 for 4 days. Following incubation for 4 days, SYTOX green nucleic acid stain (Life Technologies [Thermo Fisher Scientific]) was added to the wells at a final concentration of 1 μM and incubated at room temperature for 30 min. Cells were then fixed using 4% formaldehyde (Electron Microscopy Sciences), washed 3 times with PBS followed by blocking and permeabilization using 3% Bovine Serum Albumin (BSA; Sigma) and 0.3% Triton X-100 (Sigma) in PBS. Cells were then stained with antibody specific to α-smooth muscle actin (αSMA; Abcam) (ref. 1 and 2 above) in 3% Bovine Serum Albumin (BSA; Sigma) and 0.3% Triton X-100 (Sigma) in PBS, and incubated overnight at 4° C. Cells were then washed 3 times with PBS, followed by incubation with Alexa Flor-647 conjugated secondary antibody (Life Technologies [Thermo Fisher Scientific]) and DAPI at room temperature for 1 hour. Cells were then washed 3 times with PBS and plates were sealed for imaging. αSMA staining was imaged by excitation at 630 nm and emission at 665 nm and quantified using the Compartmental Analysis program on the CellInsight CX5 (Thermo Scientific). Dead or apoptotic cells were excluded from analysis based on positive SYTOX green staining. % of total cells positive for αSMA were counted in each well and normalized to the average of 11 wells treated with TGF-β1 on the same plate using Dotmatics' Studies Software. The normalized averages (fold change over untreated) of 3 replicate wells for each compound concentration were used to create dose-responses curves and EC50 values were calculated using non-linear regression curve fit in the Dotmatics' Studies Software. For EC50 of >10 μM, the percent inhibition at 10 μM is provided.

SMILES | inhibition at 10 µM [1] [%] | EC50 [1] [nM] | inhibition at 10 µM [2] [%] | EC50 [2] [nM] | EC50 [3] [nM] | inhibition at 10 µM ([3]; at 10 μM, given where EC50 >10 μM, αSMA, LL29 cells, TGF-β1, read-out: percent inhibition at 10 μM) [%]
CCC(=O)Nc1cncc(-c2cc3c(-c4cc5c(-c6cccc(F)c6)ccnc5[nH]4)n[nH]c3cn2)c1 [Compound 1, N-(5-(3-(4-(3-Fluorophenyl)-1H-pyrrolo[2,3-b]pyridin-2-yl)-1H-pyrazolo [3,4-c]pyridin-5-yl)pyridin-3-yl)propionamide] | 24.3 | > 10000 | 36.3 | > 10000 | 1620 | –
Fc1cccc(-c2ccnc3[nH]c(-c4n[nH]c5cnc(-c6cccnc6)cc45)cc23)c1 [Compound 4, 3-(4-(3-Fluorophenyl)-1H-pyrrolo[2,3-b]pyridin-2-yl)-5-(pyridin-3-yl)-1H-pyrazolo[3,4-c]pyridine] | – | 1210 | – | 2730 | 1030 | –
CC(C)(C)C(=O)Nc1cncc(-c2cc3c(-c4cc5c(-c6cccc(F)c6)ccnc5[nH]4)n[nH]c3cn2)c1 [Compound 8, N-(5-(3-(4-(3-Fluorophenyl)-1H-pyrrolo[2,3-b]pyridin-2-yl)-1H-pyrazolo [3,4-c]pyridin-5-yl)pyridin-3-yl)pivalamide] | – | 73 | – | 723 | 33 | –
O=C(Nc1cncc(-c2cc3c(-c4cc5c(-c6cccc(F)c6)ccnc5[nH]4)n[nH]c3cn2)c1)c1ccccc1 [Compound 11, N-(5-(3-(4-(3-Fluorophenyl)-1H-pyrrolo[2,3-b]pyridin-2-yl)-1H-pyrazolo [3,4-c]pyridin-5-yl)pyridin-3-yl)benzamide] | 8.2 | > 10000 | 46.8 | > 10000 | 4210 | –
Fc1cccc(-c2ccnc3[nH]c(-c4n[nH]c5cnc(-c6cncc(CN7CCCC7)c6)cc45)cc23)c1 [Compound 14, 3-(4-(3-Fluorophenyl)-1H-pyrrolo[2,3-b]pyridin-2-yl)-5-(5-(pyrrolidin-1-ylmethyl)pyridin-3-yl)-1H-pyrazolo[3,4-c]pyridine] | 22.8 | > 10000 | 13.3 | > 10000 | 3530 | –
O=C(Nc1cncc(-c2cc3c(-c4cc5c(-c6cccc(F)c6)ccnc5[nH]4)n[nH]c3cn2)c1)C1CC1 [Compound 20, N-(5-(3-(4-(3-Fluorophenyl)-1H-pyrrolo[2,3-b]pyridin-2-yl)-1H-pyrazolo [3,4-c]pyridin-5-yl)pyridin-3-yl)cyclopropanecarboxamide] | – | 97 | – | 159 | 19 | –
Fc1cccc(-c2ccnc3[nH]c(-c4n[nH]c5cnc(-c6cncnc6)cc45)cc23)c1 [Compound 27, 3-(4-(3-Fluorophenyl)-1H-pyrrolo[2,3-b]pyridin-2-yl)-5-(pyrimidin-5-yl)-1H-pyrazolo[3,4-c]pyridine] | – | 507 | 41.2 | > 10000 | 2820 | –
CC(C)CC(=O)Nc1cncc(-c2cc3c(-c4cc5c(-c6ccc(F)cc6)ccnc5[nH]4)n[nH]c3cn2)c1 [Compound 30, N-(5-(3-(4-(4-Fluorophenyl)-1H-pyrrolo[2,3-b]pyridin-2-yl)-1H-pyrazolo [3,4-c]pyridin-5-yl)pyridin-3-yl)-3-methylbutanamide] | – | 444 | – | 2470 | 820 | –
CC(C)C(=O)Nc1cncc(-c2cc3c(-c4cc5c(-c6ccc(F)cc6)ccnc5[nH]4)n[nH]c3cn2)c1 [Compound 37, N-(5-(3-(4-(4-Fluorophenyl)-1H-pyrrolo[2,3-b]pyridin-2-yl)-1H-pyrazolo [3,4-c]pyridin-5-yl)pyridin-3-yl)isobutyramide] | – | 671 | – | 2690 | 668 | –
O=C(Nc1cncc(-c2cc3c(-c4cc5c(-c6ccc(F)cc6)ccnc5[nH]4)n[nH]c3cn2)c1)C1CCC1 [Compound 49, N-(5-(3-(4-(4-Fluorophenyl)-1H-pyrrolo[2,3-b]pyridin-2-yl)-1H-pyrazolo [3,4-c]pyridin-5-yl)pyridin-3-yl)cyclobutanecarboxamide] | – | 747 | – | 4640 | 1530 | –
Nc1cncc(-c2cc3c(-c4cc5c(-c6ccccc6F)ccnc5[nH]4)n[nH]c3cn2)c1 [Compound 59, 5-(3-(4-(2-Fluorophenyl)-1H-pyrrolo[2,3-b]pyridin-2-yl)-1H-pyrazolo[3,4-c]pyridin-5-yl)pyridin-3-amine] | 14.3 | > 10000 | 16.4 | > 10000 | 386 | –
CCNCc1cncc(-c2cc3c(-c4cc5c(-c6ccccc6F)ccnc5[nH]4)n[nH]c3cn2)c1 [Compound 62, N-((5-(3-(4-(2-Fluorophenyl)-1H-pyrrolo[2,3-b]pyridin-2-yl)-1H-pyrazolo [3,4-c]pyridin-5-yl)pyridin-3-yl)methyl)ethanamine] | 6.8 | > 10000 | 15.7 | > 10000 | > 10000 | 64.9
O=C(Cc1ccccc1)Nc1cncc(-c2cc3c(-c4cc5c(-c6ccccc6F)ccnc5[nH]4)n[nH]c3cn2)c1 [Compound 66, N-(5-(3-(4-(2-Fluorophenyl)-1H-pyrrolo[2,3-b]pyridin-2-yl)-1H-pyrazolo [3,4-c]pyridin-5-yl)pyridin-3-yl)-2-phenylacetamide] | – | 139 | – | 620 | 501 | –
